Like-named read-outs stand apart in the source and are kept apart here.
How the values were obtained:
[1] = test system: BHK21 cells infected with bovine epidemic fever virus; conditions: 24 hours after virus infection, hydrogen group vs hydrogen-free group
Protocol: (§1) By adding H2O2 at concentrations of 0 μM, 4 μM, 10 μM, and 20 μM, the BHK-21 cells (1×10^5/test) in the experimental group and in the control group were induced to undergo oxidation reaction. H2DCFDA was modified by cellular esterases to form a non-fluorescent H2DCF after adding H2DCFDA cell-permeant fluorescence probe.
(§2) 0.01 MOI bovine epidemic fever virus liquid (virus strain Tn88128 , References: Hsieh, Y -C.; Wang, S. -Y; Lee, Y -F.; Chen, S. -H.; Mak, P. O. T.; Chu, C. -Y. DNA sequence analysis of glycoprotein G gene of bovine ephemeral fever virus and development of a double oil emulsion vaccine against bovine ephemeral fever. J. Vet. Med. Sci. 2006, 68, 543-548) was used for infecting two groups of cells and the virus was cultured until the eighth day (day 8), the voltage was 3-5V, and the current was 0.5 A. The cell number, hydrogen concentration, viral titer and cell senescence molecular marker Cdkn2a (p16) were measured daily.
Two groups of cells infected with virus on part of the carrier sheets in the bioreactor were collected after 24 hours, and H2O2 with concentrations of 0 μM, 4 μM, 10 μM, and 20 μM was added to induce intracellular oxidation reaction, and the ROS fold changes were evaluated by the method of 2.3 in Example 2.

BHK-21 cells = conditions: H2O2 0, 4, 10, 20 μM; days 4, 5 and 6; hydrogen group vs hydrogen-free group
Protocol: The cells were divided into two groups to analyze the antioxidant effect. […] Following Example 1, when the antioxidant auxiliary equipment was turned on the second day (day 2), hydrogen gas was supplied at the frequency of turning on the current for 15 minutes per hour, the voltage was 3-5V, the constant current was 0.5 A, and the theoretical hydrogen production was about 466×10^−5 moles per hour. On the third day, the frequency was adjusted to turn on for 15 minutes and turn off for 15 minutes to continuously supply hydrogen gas until the end of the experiment. The voltage was 3˜5V, the constant current was 0.5 A, and the theoretical hydrogen production was about 933×10^−5 moles per hour. The culture medium was replaced on the third day, and the cells were cultured until the eighth day. Cell number, hydrogen concentrations, and reactive oxygen species (ROS) tolerance responses were measured daily.
as §1

[2] = test system: hamster kidney cells (BHK21); conditions: bioreactor with hydrogen vs without hydrogen, hydrogen supplied from day 2, culture to day 8
Protocol: The hamster kidney cells were incubated at 37° C. in an incubator with 5.0% CO2 using MEM culture medium (Invitrogen, Gibco Co. Ltd., New York, USA, with 10% FBS). The hamster kidney cells were incubated in a cell culture flask (175T Flask) for 3 days, and then placed in a roller bottle for expanded culture for 3 days. At the beginning of the experiment, the cells were first transferred to a tidal bioreactor (Bellocell, Taiwan) with a working volume of 500 ml of culture medium for 2 days to adapt to the environment in which the hamster kidney cells could grow to a saturated number of about 3×10^9/bottle. The electrolysis-based hydrogen generator was started on day 2 for antioxidant cell culture to regulate cellular oxidative stress.
The cells were divided into two groups to analyze the antioxidant effect. […] Cell number, hydrogen concentrations, and reactive oxygen species (ROS) tolerance responses were measured daily.
The biological carriers in the bioreactors of the experimental group and the control group were collected daily, 1 ml of Crystal Violet Dye (CVD) cell counting dye was added, and the number of cells was counted and recorded using an inverted microscope.

Cdkn2a (p16) = conditions: after hydrogen supply, on the third day; experimental vs control group
Protocol: (§3) On the second day, the antioxidant auxiliary equipment was started, and hydrogen gas was supplied at the frequency of turning on the current for 15 minutes per hour. On the third day, the frequency of the current was adjusted to the frequency of turning on the current for 15 minutes and turning off the current for 15 minutes. 0.01 MOI bovine epidemic fever virus liquid (virus strain Tn88128 , References: Hsieh, Y -C.; Wang, S. -Y; Lee, Y -F.; Chen, S. -H.; Mak, P. O. T.; Chu, C. -Y. DNA sequence analysis of glycoprotein G gene of bovine ephemeral fever virus and development of a double oil emulsion vaccine against bovine ephemeral fever. J. Vet. Med. Sci. 2006, 68, 543-548) was used for infecting two groups of cells and the virus was cultured until the eighth day (day 8), the voltage was 3-5V, and the current was 0.5 A. The cell number, hydrogen concentration, viral titer and cell senescence molecular marker Cdkn2a (p16) were measured daily.
The expression level of the cellular senescence molecule Cdkn2a (p16) is an indicator of senescent cells. […]

[3] = test system: BHK21 cells infected with bovine epidemic fever virus; conditions: 24 hours after virus infection; experimental group vs control group
Protocol: as §3
After virus infection, the cells on the carrier sheet in the bioreactors of the experimental group and the control group were collected every day, 1 ml of CVD was added, and the number of cells was calculated on that day. The formula for calculating the cell death rate is [(total number of cells on the previous day)−(total number of cells on that day)]/(total number of cells on the previous day)*100%.

[4] = test system: bovine epidemic fever virus (strain Tn88128); conditions: 24 hours after virus infection (the 4th day), 0.01 MOI
Protocol: as §2
After the virus infection, the virus tier in the virus liquid was measured by the TCID50 detection method after collecting the virus liquid in the bioreactors of the experimental group and the control group every day. The virus liquid was serially diluted 10-fold with MEM to 1/10^10th of original concentration, and then inoculated into a 96-well cell culture plate at 100 μl/well (100 μl of cell fluid was already added to each well, containing 2×10^4 BHK21 cells), the BHK21 cells were cultured in a 5% CO2 incubator at 37° C. for 3 days. After cytopathic effect (CPE) was observed and recorded, TCID50 was calculated using the Reed-Muench method.

## [HH] [molecular hydrogen]
[1]; H2O2 10 μM
  ROS fold change: significantly reduced the ROS fold change
[1]; H2O2 20 μM
  ROS fold change: significantly reduced the ROS fold change
BHK-21 cells
  ROS fold change: significantly demonstrated reduced ROS fold change
[2]
  cell growth pattern / damage to cells: will not cause damage to cells
Cdkn2a (p16)
  fold change of gene expression of senescence molecule Cdkn2a (p16): decreased significantly
[3]
  cell consumption rate (cell death rate): greater than that of the control group
[4]
  virus yield relative to hydrogen-free group: 16 times
